Assay results: patent US12337037B2, “Taxol conjugate compounds, pharmaceutical compositions comprising the same, and methods for their use” (N1 Life, Inc, priority 2021, dated 2025)
“Also recorded” adds a separate entry of the source. Read-outs that look alike come from different tables or passages of the source.

Tests used:
[1] = system: Human ovarian cancer (SKOV-3-GFP) cells; assay: Efficacy in metastatic ovarian cancer model (peritoneal disseminated metastasis); assay type: in vivo, Female athymic nude mice; conditions: for acute toxic effect / animal death: ovarian cancer model; for mean tumor fluorescence area as % of the Vehicle (PBS) group / Average tumor area on day 0 (MEAN ± SD) / Average tumor area on day 21 (MEAN ± SD) / Mean tumor mass (g) (MEAN ± SD) / Average tumor inhibitory rate (%) (MEAN ± SD): Taxol 10 mg/kg; for mean tumor fluorescence area as % of the Vehicle (PBS) group: Compound 3 / Compound 5 9.6 mg/kg IP Q5D; for Average tumor area on day 0 (MEAN ± SD): baseline fluorescence area; for Average tumor area on day 21 (MEAN ± SD): fluorescence area; for Mean tumor mass (g) (MEAN ± SD): conjugate 9.6 mg/kg IP Q5D; for Average tumor inhibitory rate (%) (MEAN ± SD): from final tumor weights
Experimental: The tumor samples were then stored in formalin solution.
Method: The method was the same as described for Biological Example 4.
Endpoint tumor load of each group: At Day 21 after administration, the tumor load of each group was calculated by dissecting and weighing the tumor in the abdominal cavity. The vehicle was the control.
Tumor inhibitory rate (IR): Tumor IR was calculated based on the final average tumor weights according to the formula: IR (%)=(1-treatment(t)/control(c))×100

[2] = system: DLD-1 colorectal adenocarcinoma cell line; assay: cells
Experimental: (§1) Cytotoxicity Assay—CCK8 Cancer Cells
(§2) The CCK-8 assay was applied to study the cytotoxicity of the peptide drug conjugates and their inhibition of proliferation of cancer cells. First, 2˜10×10^3 cells (depending on the rate of growth of different cell lines) with 100 μL, DMEM media were seeded in normal culture medium into each well of a 96-well plate. The cells were then cultured overnight at 37° C. with 4˜5% CO2. Different doses (4000, 2000, 1000, 500 nM for Hep3B, Hep G2 and MCF7/MBA-MD-231; 1000, 333.3, 100.0, 33.33, 3.333, 1.000, 0.333 nM for MCF7/ADR, 22Rv1, CNE1, HCT116, DLD-1) of Taxol and peptide drugs were added. After 48˜72 hour incubation, CCK-8 solution was added to each well. The cells were then incubated at 37° C. for 4 hours. The optical density was measured at 450/650 nm using a multiscan spectrometer (PerkinElmer's EnSpire Multilabel Plate Reader). The optical density is linearly proportional to the number of living cells in the sample:
(§3) The plate layout for MCF7/ADR, 22Rv1, CNE1, HCT116, DLD-1 cell lines is shown below.

[3] = system: HCT116 human colorectal carcinoma cell; assay: cells
Experimental: as §1, §2, §3

[4] = system: CNE1 nasopharyngeal carcinoma cell line; assay: cells; conditions: read-out: IC50 nM
Experimental: as §1, §2, §3

[5] = system: MCF7/ADR multidrug-resistant breast cancer cell; assay: cells; conditions: read-out: IC50 nM
Experimental: as §1, §2, §3

[6] = system: 22Rv1 human prostate carcinoma epithelial cell line; assay: cells
Experimental: as §1, §2, §3

[7] = system: liver cancer Hep 3B cells; assay: CCK-8 cytotoxicity / anti-proliferation assay, Hep 3B; assay type: cell-based; conditions: for Anti-proliferation %: 4 μM
Experimental: as §1
as §2, with “sample: […]” for “sample:”

SKOV-3-GFP cells = assay: Elimination of ascites; assay type: in vivo, mice; conditions: SKOV-3-GFP cells injected into the peritoneal cavity; Compound 3 9.6 mg/kg, Taxol 10 mg/kg
Experimental: Following the procedure described in Example 5, mice injected with SKOV-3-GFP cells (a cell suspension of 6×10^6/120 μL/mouse or 8×10^6/120 μL/mouse injected into the peritoneal cavity) were also studied for the formation of ascites. Mice were administered vehicle (PBS), Taxol (10 mg/kg), or Compound 3 (9.6 mg/kg).
FIG. 16 and FIG. 18 are images of mice administered vehicle following an injection of SKOV-3-GFP cells (6×10^6/120 μL/mouse or 8×10^6/120 μL/mouse, respectively). […] FIG. 17A and FIG. 17B are images of two mice administered Compound 3 (9.6 mg/kg, equimolar to 2.5 mg/kg Taxol) following an injection of SKOV GFP cells (6×10^6/120 μL/mouse).

[8] = Table 8A (Compound 3 set), Compd 3 9.6 mg/kg IP Q5D
[9] = Table 9B (titled Compound 5 set), Day 21
[10] = Table 10A (Compound 3 set), Day 21, Compd 3 9.6 mg/kg IP Q5D
[11] = read-out: IC50 nM, HCT116 cells
[12] = Table 8B (Compound 5 set), Compd 5 9.6 mg/kg IP Q5D
[13] = Table 9A (titled Compound 3 set), Day 21
[14] = Table 10B (Compound 5 set), Day 21, Compd 5 9.6 mg/kg IP Q5D

| Compound | acute toxic effect / animal death ([1]; 9.6 mg/kg IP Q5D) | mean tumor fluorescence area as % of the Vehicle (PBS) group ([1]; Day 21) | Average tumor area on day 0 (MEAN ± SD) [1, 8] | Average tumor area on day 21 (MEAN ± SD) [1, 8] | Mean tumor mass (g) (MEAN ± SD) [1, 9] | Average tumor inhibitory rate (%) (MEAN ± SD) [1, 10] | IC50 ([2]; read-out: IC50 nM, DLD-1 cells) [nM] | IC50 [3, 11] [nM] | IC50 ([4]; CNE1 cells) [nM] | IC50 ([5]; MCF7/ADR cells) [nM] | IC50 ([6]; read-out: IC50 nM, 22Rv1 cells) [nM] | Anti-proliferation % [7] [%] | formation of ascites (SKOV-3-GFP cells) | Average tumor area on day 0 (MEAN ± SD) [1, 12] | Average tumor area on day 21 (MEAN ± SD) [1, 12] | Mean tumor mass (g) (MEAN ± SD) [1, 13] | Average tumor inhibitory rate (%) (MEAN ± SD) [1, 14] | other results |
| --- | --- | --- | --- | --- | --- | --- | --- | --- | --- | --- | --- | --- | --- | --- | --- | --- | --- | --- |
| CC(=O)N[C@@H](CSSCCCC(=O)OC(C(=O)O[C@H]1C[C@@]2(O)[C@@H](OC(=O)c3ccccc3)[C@@H]3[C@]4(OC(C)=O)CO[C@@H]4C[C@H](O)[C@@]3(C)C(=O)[C@H](OC(C)=O)C(=C1C)C2(C)C)[C@@H](NC(=O)c1ccccc1)c1ccccc1)C(=O)N[C@H](CCCNC(=N)N)C(=O)N[C@H](CCCNC(=N)N)C(=O)N[C@H](CCCNC(=N)N)C(=O)N[C@H](CCCNC(=N)N)C(=O)N[C@H](CCCNC(=N)N)C(=O)N[C@H](CCCNC(=N)N)C(=O)N[C@H](CCCNC(=N)N)C(=O)N[C@H](CCCNC(=N)N)C(N)=O (stereo partly drawn) [Compound 3, Ac-L-Cysteine (paclitaxel-4-mercaptobutanoate)-D-Arginine8-NH2] | no obvious acute toxic effect | about 20% | 18.6 ± 5.3 | 30.9 ± 24.2 | 0.2555 ± 0.1388 | 90±8 | 62 | 21.5 | 15.9 | 438 | 21.6 | 36.0 | No bloody ascites were observed | – | – | – | – | tumor inhibition effect, better than Compound 5 ([1]; 9.6 mg/kg): at least 10%; average tumor fluorescence area as % of the Taxol (10 mg/kg) group ([1]; Day 21, 9.6 mg/kg IP Q5D): about 100%; average tumor weight as % of the Vehicle group ([1]; Day 21, 9.6 mg/kg IP Q5D): about 10%; Average tumor inhibitory rate (%) (MEAN ± SD) ([1]; Table 10A (Compound 3 set), Day 21, Compd 3 9.6 mg/kg IP Q5D, listed as Compd 3): 90 ± 8%; cancer cell inhibition compared to Compound 5 (FIG. 2A) ([7]; all tested concentrations (500-4000 nM)): substantially superior to cancer cell inhibition compared to Compound 5 at all tested concentrations |
| CC(=O)N[C@H](CSSCCCC(=O)O[C@@H](C(=O)O[C@H]1C[C@@]2(O)[C@@H](OC(=O)c3ccccc3)[C@@H]3[C@]4(OC(C)=O)CO[C@@H]4C[C@H](O)[C@@]3(C)C(=O)[C@H](OC(C)=O)C(=C1C)C2(C)C)[C@@H](NC(=O)c1ccccc1)c1ccccc1)C(=O)N[C@H](CCCNC(=N)N)C(=O)N[C@H](CCCNC(=N)N)C(=O)N[C@H](CCCNC(=N)N)C(=O)N[C@H](CCCNC(=N)N)C(=O)N[C@H](CCCNC(=N)N)C(=O)N[C@H](CCCNC(=N)N)C(=O)N[C@H](CCCNC(=N)N)C(=O)N[C@H](CCCNC(=N)N)C(N)=O [Compound 5, Ac-D-Cysteine (paclitaxel-4-mercaptobutanoate)-D-Arginine8-NH2] | caused animal death; also recorded: one animal died at Day 18 | 10% | – | – | – | – | 110 | 23.5 | 19.3 | > 1000 | 29.3 | 23.2 | – | 24.9 ± 6.6 | 28.7 ± 19.8 | 0.178 ± 0.143 | 79±11 | tumor inhibitory effect, less effective than Taxol ([1]; 9.6 mg/kg vs Taxol 10 mg/kg): about 10%; Average tumor inhibitory rate (%) (MEAN ± SD) ([1]; Table 10B (Compound 5 set), Day 21, Compd 5 9.6 mg/kg IP Q5D, listed as Compd 5): 79 ± 11% |
| CC(=O)O[C@H]1C(=O)[C@@]2(C)[C@H]([C@H](OC(=O)c3ccccc3)[C@]3(O)C[C@H](OC(=O)[C@H](O)[C@@H](NC(=O)c4ccccc4)c4ccccc4)C(C)=C1C3(C)C)[C@]1(OC(C)=O)CO[C@@H]1C[C@@H]2O [Taxol, paclitaxel] | – | 8-16% | 18.4 ± 3.3 | 24.8 ± 27.1 | 0.1970 ± 0.1248 | 90 ± 8 | – | – | – | – | – | 11.5 | formation of malignant as cites | 22.8 ± 4.1 | 22.7 ± 15.5 | 0.174 ± 0.141 | 84 ± 10 | IC50 ([2]; Homo sapiens, DLD-1, read-out: IC50 nM): 9.98 nM; IC50 ([3]; Homo sapiens, HCT-116, read-out: IC50 nM): 2.79 nM; IC50 [4]: 1.12 nM; IC50 ([5]; Homo sapiens, NCI/ADR-RES): > 1000 nM; IC50 ([6]; Homo sapiens, 22Rv1, read-out: IC50 nM): 4.95 nM |
